Test results: article PMC3299850 (2012)

Legend:
[1] = tested on: HP1 (TAMRA at T37) (DNA, hairpin, T37 replaced by 2'-deoxyuridine bearing TAMRA at C5) CCTGGAGAGGAAGCCAAGTGTTTTCACTTGGCTTCCTCTCCAGG; test: fluorescence titration; details: 50 mM NaCl; 10 mM HEPES, 1 mM EDTA, pH 7.4, 25 °C
[2] = tested on: HP1 (TAMRA at T34) (DNA, hairpin, T34 replaced by 2'-deoxyuridine bearing TAMRA at C5) CCTGGAGAGGAAGCCAAGTGTTTTCACTTGGCTTCCTCTCCAGG; test: fluorescence titration; details: 50 mM NaCl; 10 mM HEPES, 1 mM EDTA, pH 7.4, 25 °C
[3] = tested on: HP2 unlabeled (DNA, hairpin) GCTAGATATATAGCTTTTTAGCTATATATCTAGC; test: competition fluorescence titration; details: 50 mM NaCl; 10 mM HEPES, 1 mM EDTA, pH 7.4, 25 °C; TAMRA-HP2 complex displaced

Row | Kd [1] | Compound | also measured
1 | 140 ± 30 nM | CN(C)CCCNC(=O)CCNC(=O)c1cc(NC(=O)c2cc(NC(=O)c3cc(NC(=O)c4cc(NC(=O)CCCNC(=O)c5nc(NC(=O)CCNC(=O)c6nc(NC(=O)c7nccn7C)cn6C)cn5C)cn4C)cn3C)cn2C)cn1C | –
2 | 7.8 ± 1.6 nM | CN(C)CCCNC(=O)CCNC(=O)c1cc(NC(=O)c2cc(NC(=O)c3nc(NC(=O)CCCNC(=O)c4cc(NC(=O)c5nc(NC(=O)c6nccn6C)cn5C)cn4C)cn3C)cn2C)cn1C | –

More lines, now with the values behind:

Row | Compound | Kd [1] | also measured
3 | CN(C)CCCNC(=O)CCNC(=O)c1cc(NC(=O)CCNC(=O)c2cc(NC(=O)c3cc(NC(=O)CCCNC(=O)c4nc(NC(=O)c5cc(NC(=O)c6nc(NC(=O)c7nccn7C)cn6C)cn5C)cn4C)cn3C)cn2C)cn1C | 50 ± 15 nM | –
4 | CN(C)CCCNC(=O)CCNC(=O)c1cc(NC(=O)c2cc(NC(=O)c3nc(NC(=O)c4cc(NC(=O)CCCNC(=O)c5cc(NC(=O)c6cc(NC(=O)c7nc(NC(=O)c8nccn8C)cn7C)cn6C)cn5C)cn4C)cn3C)cn2C)cn1C | 2.3 ± 0.3 nM | –
5 | CN(C)CCCNC(=O)CCNC(=O)c1cc(NC(=O)c2nc(NC(=O)c3nc(NC(=O)c4cc(NC(=O)CCCNC(=O)c5cc(NC(=O)c6cc(NC(=O)c7cc(NC(=O)c8nccn8C)cn7C)cn6C)cn5C)cn4C)cn3C)cn2C)cn1C | – | Kd [2]: 11.4 ± 1 nM
6 | CN(CCCN)CCCNC(=O)CCNC(=O)c1cc(NC(=O)c2cc(NC(=O)c3cc(NC(=O)c4cc(NC(=O)CCNC(=O)c5cc(NC(=O)c6cc(NC(=O)CCCNC(=O)c7cc(NC(=O)c8cc(NC(=O)c9cc(NC(=O)CCNC(=O)c%10cc(NC(=O)c%11cc(NC(=O)c%12nccn%12C)cn%11C)cn%10C)cn9C)cn8C)cn7C)cn6C)cn5C)cn4C)cn3C)cn2C)cn1C | – | Kd [3]: 1.8 nM
